Experimental data published in US20240115488A1, “COMPOSITION FOR ORAL CAVITY CARE” (ICHIMARU PHARCOS CO., LTD., priority 2021, published 2024).
Like-named read-outs stand apart in the source and are kept apart here.

System: Streptococcus mutans (NBRC13955)
Type: cell-based
Conditions: Cont. group = 100
Description: The Streptococcus mutans was cultured in Todd-Hewitt Broth at 37° C. overnight (approximately 16 hours), and proliferated until the absorbance OD660 measured at 660 nm reached to a value in the range from 0.8 to 1.4. The Streptococcus mutans proliferated was used. Based on the absorbance measured, the Streptococcus mutans was diluted with PBS such that OD660 was 0.125, to prepare a bacterial culture to be used in the following test.
The Codium fragile extract liquid was diluted with PBS to have a concentration of 1%, and then used in the following test.
Each antibacterial agent used in the test was prepared to have a concentration that was two times a test concentration for mixing of the antibacterial agent with the Codium fragile extract liquid, a fraction having a predetermined molecular weight, or PBS at 1:1.
As a CPC solution, a stock solution (2% CPC) was obtained by dissolving 0.2 g of CPC in 10 mL of ethanol solution. This solution was diluted 20-fold with purified water to prepare a 0.1% CPC (5% ethanol) solution. This solution was further diluted with a 5% ethanol solution to prepare 0.05% CPC (5% ethanol) and 0.02% CPC (5% ethanol).
As a benzalkonium chloride solution, a stock solution (2% benzalkonium chloride) was obtained by dissolving 0.2 g of benzalkonium chloride in 10 mL of ethanol solution. This solution was diluted 5-fold with ethanol to prepare an ethanol solution of 0.4% benzalkonium chloride solution. This solution was diluted 20-fold with purified water to prepare 0.02% benzalkonium chloride (5% ethanol). This was further diluted 2-fold with a 5% ethanol solution to prepare a 0.01% benzalkonium chloride (5% ethanol) solution. This solution was diluted 2 times with a 5% ethanol solution to prepare a 0.005% benzalkonium chloride (5% ethanol) solution.
A 20% aqueous chlorhexidine solution was used as an undiluted solution of chlorhexidine solution. The chlorhexidine solution was diluted 20-fold with ethanol and purified water to prepare a 0.1% chlorhexidine (5% ethanol) solution. This solution was further diluted 5-fold with a 5% ethanol solution to prepare a 0.02% chlorhexidine (5% ethanol) solution. This solution was further diluted 10-fold with 5% ethanol to prepare a 0.002% chlorhexidine (5% ethanol) solution.
As an IPMP solution, a stock solution (4% IPMP) was obtained by dissolving 0.4 g of IPMP in 10 mL of ethanol solution. This solution was diluted 20-fold with ethanol and purified water to prepare a 0.2% IPMP (20% ethanol) solution. This solution was further diluted 2-fold with 20% ethanol to prepare a 0.1% IPMP (20% ethanol) solution. This solution was further diluted with 20% ethanol to prepare a 0.04% IPMP (20% ethanol) solution.
Two or more hours after toothbrushing, saliva was collected. Stimulated saliva secreted by mastication of Parafilm was collected, and then centrifuged at 4° C. and 2,000×g for 30 minutes. A supernatant was filtered with suction through a cellulose mixed ester membrane filter (0.1 μm, 90 mm), and the saliva was diluted with PBS to have an appropriate concentration.
100 μL of the human saliva prepared as describe above was added to a 96-well multiplate (made from polystyrene, MultiSorp, manufactured by Thermo Fisher Scientific Inc.), the multiplate was sealed, and incubation was carried out at 37° C. for 1 hour. Each well was then cleaned twice with 300 μL of PBS, 100 μL of each of the samples described above was added, the multiplate was sealed, and incubation was carried out at 37° C. for 1 hour. Subsequently, the liquid was discarded from each of the wells, the wells were cleaned twice with 300 μL of PBS, and 100 μL of the bacterial culture prepared such that OD660 was 0.125 was added to each well.

Question: How did the Adhesion rate (0.010 (w/v %) benzalkonium chloride, FIG. 2) turn out when benzalkonium chloride was run?
Answer: 103

Question: What about the Adhesion rate (0.025 (w/v %) benzalkonium chloride, FIG. 2) of the same compound?
Answer: 98.4

Question: And the Adhesion rate (0.050 (w/v %) benzalkonium chloride, FIG. 2)?
Answer: 93.8

Question: For `Cc1cc(O)ccc1C(C)C` [IPMP, 3-methyl-4-isopropyl methylphenol], which Adhesion rate (0.020 (w/v %) IPMP, FIG. 4) is on record?
Answer: 91.5

Question: And the Adhesion rate (0.050 (w/v %) IPMP, FIG. 4)?
Answer: 84.3

Question: What about the Adhesion rate (0.100 (w/v %) IPMP, FIG. 4) of the same compound?
Answer: 70.7

Question: With `[H]/N=C(\N/C(=N/[H])NCCCCCCNC(=N)NC(=N)Nc1ccc(Cl)cc1)Nc1ccc(Cl)cc1` [chlorhexidine] as the compound, how does the Adhesion rate (0.010 (w/v %) chlorhexidine, FIG. 3) read?
Answer: 85.9

Question: What about the Adhesion rate (0.025 (w/v %) chlorhexidine, FIG. 3) of the same compound?
Answer: 63.3

Question: What about the Adhesion rate (0.050 (w/v %) chlorhexidine, FIG. 3) of the same compound?
Answer: 62.4

Question: How did the Adhesion rate (0.010 (w/v %) CPC, relative value, FIG. 1) turn out when `CCCCCCCCCCCCCCCC[n+]1ccccc1` [CPC, cetylpyridinium chloride] was run?
Answer: 92.6

Question: What about the Adhesion rate (0.025 (w/v %) CPC, relative value, FIG. 1) of the same compound?
Answer: 93.4

Question: What about the Adhesion rate (0.050 (w/v %) CPC, relative value, FIG. 1) of the same compound?
Answer: 98.9
